Results as given in publication PMC8452096 (bioRxiv, 2021).

Experiments:
[1] = molar basis, compared with RDV; cited from earlier work
[2] = Plasma pharmacokinetics after oral administration in uninfected BALB/c mice; format: in vivo
SARS-CoV-2 nLUC = assay: microbe, parasite or virus in culture; format: cell-based; details: Severe acute respiratory syndrome coronavirus 2
SARS-CoV-2 Fluc = assay: microbe, parasite or virus in culture; format: cell-based; details: Severe acute respiratory syndrome coronavirus 2, NHBE, in Homo sapiens, 24 h
WT SARS-CoV-2 = format: cell-based

SMILES | efficiency at generating lung triphosphate, less than RDV [1] | maximal plasma concentrations (Cmax) and exposures (AUC0–24h) ([2]; GS-441524 after single oral GS-621763, 5 vs 20 mg/kg) | EC50 (SARS-CoV-2 nLUC) [nM] | EC50 (SARS-CoV-2 Fluc) [nM] | infectious virus production / viral titers (WT SARS-CoV-2) | NHC plasma exposures ([2]; after oral MPV 30 mg/kg or 100 mg/kg BID, BALB/c mice)
N#C[C@@]1(c2ccc3c(N)ncnn23)O[C@H](CO)[C@@H](O)[C@H]1O [GS-441524] | at least 10 fold | Dose proportional increases | 3300 | 2450 | significant and dose-dependent reduction in viral titers | –
O=c1nc(NO)ccn1[C@@H]1O[C@H](CO)[C@@H](O)[C@H]1O [NHC, β-D-N4-hydroxycytidine] | – | – | – | – | – | dose proportional increases
CCC(CC)COC(=O)[C@H](C)N[P@](=O)(OC[C@H]1O[C@@](C#N)(c2ccc3c(N)ncnn23)[C@H](O)[C@@H]1O)Oc1ccccc1 [RDV, remdesivir] | – | – | 280 | 37.1 | significant and dose-dependent reduction in viral titers | –
